Source: ChEMBL document CHEMBL1147927, “Piperazinyl CCR1 antagonists--optimization of human liver microsome stability” (Bioorg Med Chem Lett, 2007)

Assays:
[1] = Half life in rat; type: ADME, organism-based; conditions: in vivo
[2] = Metabolic stability in monkey liver microsomes; type: ADME, Macaca fascicularis, Microsome; conditions: cynomolgus monkey
[3] = molecular target: T1, C-C chemokine receptor type 1 (Homo sapiens, UniProt P32246); test: Binding Affinity at CCL3
T1 sequence (P32246 whole entry): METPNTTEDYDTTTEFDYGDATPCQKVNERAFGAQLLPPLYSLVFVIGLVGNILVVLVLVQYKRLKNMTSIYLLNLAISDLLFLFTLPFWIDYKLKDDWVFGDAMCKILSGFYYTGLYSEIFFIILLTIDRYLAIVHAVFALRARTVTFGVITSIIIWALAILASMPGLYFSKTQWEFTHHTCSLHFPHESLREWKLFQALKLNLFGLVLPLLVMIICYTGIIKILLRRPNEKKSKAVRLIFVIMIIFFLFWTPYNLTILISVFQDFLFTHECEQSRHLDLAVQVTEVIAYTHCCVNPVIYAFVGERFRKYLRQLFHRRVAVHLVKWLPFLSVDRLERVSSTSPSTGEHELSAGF

[4] = Metabolic stability in rat liver microsomes; type: ADME, Microsome
[5] = Plasma clearance in monkey; type: ADME, organism-based, Macaca fascicularis; conditions: cynomolgus monkey
[6] = Half life in dog; type: ADME, organism-based, Canis lupus familiaris; conditions: in vivo
[7] = Metabolic stability in human liver microsomes; type: ADME, Microsome
[8] = Plasma clearance in iv dosed dog; type: ADME, organism-based, Canis lupus familiaris
[9] = Activity at CCL3 by chemotaxis assay; type: functional
[10] = Volume of distribution at steady state in rat; type: ADME, organism-based; conditions: in vivo, read-out: Vdss
[11] = Metabolic stability in dog liver microsomes; type: ADME, Canis lupus familiaris, Microsome
[12] = Volume of distribution at steady state in dog; type: ADME, organism-based, Canis lupus familiaris; conditions: in vivo, read-out: Vdss
[13] = Half life in monkey; type: ADME, organism-based, Macaca fascicularis; conditions: cynomolgus monkey, in vivo
[14] = Volume of distribution at steady state in monkey; type: ADME, organism-based, Macaca fascicularis; conditions: cynomolgus monkey, in vivo; read-out: Vdss
[15] = Plasma clearance in iv dosed rat; type: ADME, organism-based
[16] = Bioavailability in dog; type: ADME, organism-based, Canis lupus familiaris; conditions: in vivo
[17] = Bioavailability in rat; type: ADME, organism-based; conditions: in vivo
[18] = Bioavailability in monkey; type: ADME, organism-based, Macaca fascicularis; conditions: cynomolgus monkey, in vivo

SMILES: C[C@@H]1CN(Cc2ccc(F)cc2)[C@@H](C)CN1C(=O)COc1ccc(Cl)cc1C(=O)O
- half-life [1]: 14 h
- CLhep predicted [2]: 31 mL/min/kg
- IC50 [3]: 59 nM
- CLhep predicted [4]: 20 mL/min/kg
- clearance [5]: 3.4 mL/min/kg
- half-life [6]: 11 h
- CLhep predicted [7]: 4.7 mL/min/kg
- clearance [8]: 0.2 mL/min/kg
- IC50 [9]: 68 nM
- Vd [10]: 2.4 L/kg
- CLhep predicted [11]: 11 mL/min/kg
- Vd [12]: 0.2 L/kg
- half-life [13]: 5.9 h
- Vd [14]: 0.9 L/kg
- clearance [15]: 2.4 mL/min/kg

SMILES: C[C@@H]1CN(Cc2ccc(F)cc2)[C@@H](C)CN1C(=O)COc1ccc(Cl)cc1CS(=O)(=O)O
- half-life [1]: 4.6 h
- CLhep predicted [2]: 18 mL/min/kg
- IC50 [3]: 23 nM
- bioavailability [16]: 100%
- CLhep predicted [4]: 21 mL/min/kg
- clearance [5]: 51 mL/min/kg
- half-life [6]: 21 h
- CLhep predicted [7]: 4.7 mL/min/kg
- clearance [8]: 0.2 mL/min/kg
- bioavailability [17]: 40%
- IC50 [9]: 3 nM
- Vd [10]: 2.6 L/kg
- CLhep predicted [11]: 11 mL/min/kg
- Vd [12]: 0.4 L/kg
- half-life [13]: 1.1 h
- Vd [14]: 2.1 L/kg
- clearance [15]: 17 mL/min/kg
- bioavailability [18]: 19%

SMILES: C[C@@H]1CN(Cc2ccc(F)cc2)CCN1C(=O)COc1ccc(Cl)cc1
- CLhep predicted [2]: 40 mL/min/kg
- IC50 [3]: 860 nM
- CLhep predicted [4]: 63 mL/min/kg
- CLhep predicted [7]: 14 mL/min/kg
- IC50 [9]: 86 nM
- CLhep predicted [11]: 27 mL/min/kg

SMILES: C[C@@H]1CN(Cc2ccc(F)cc2)[C@@H](C)CN1C(=O)COc1ccc(Cl)cc1CC(=O)O
- half-life [1]: 3.7 h
- CLhep predicted [2]: 18 mL/min/kg
- IC50 [3]: 38 nM
- CLhep predicted [4]: 25 mL/min/kg
- half-life [6]: 11 h
- CLhep predicted [7]: 4.7 mL/min/kg
- clearance [8]: 0.4 mL/min/kg
- IC50 [9]: 2 nM
- Vd [10]: 3.2 L/kg
- CLhep predicted [11]: 11 mL/min/kg
- Vd [12]: 0.3 L/kg
- clearance [15]: 5.2 mL/min/kg

SMILES: C[C@@H]1CN(Cc2ccc(F)cc2)[C@@H](C)CN1C(=O)COc1ccc(Cl)cc1NC(=O)NCCN
- CLhep predicted [2]: 18 mL/min/kg
- IC50 [3]: 8 nM
- CLhep predicted [4]: 24 mL/min/kg
- CLhep predicted [7]: 4.9 mL/min/kg
- IC50 [9]: 1 nM
- CLhep predicted [11]: 11 mL/min/kg

SMILES: C[C@@H]1CN(Cc2ccc(F)cc2)[C@@H](C)CN1C(=O)COc1ccc(Cl)cc1C(=O)NCCN
- half-life [1]: 1 h
- CLhep predicted [2]: 36 mL/min/kg
- IC50 [3]: 30 nM
- CLhep predicted [4]: 22 mL/min/kg
- CLhep predicted [7]: 5.9 mL/min/kg
- IC50 [9]: 3 nM
- Vd [10]: 7.7 L/kg
- CLhep predicted [11]: 25 mL/min/kg
- clearance [15]: 184 mL/min/kg

SMILES: C[C@@H]1CN(Cc2ccc(F)cc2)[C@@H](C)CN1C(=O)COc1ccc(Cl)cc1C(=O)CCC(=O)O
- half-life [1]: 2.3 h
- CLhep predicted [2]: 18 mL/min/kg
- IC50 [3]: 13 nM
- bioavailability [16]: 100%
- CLhep predicted [4]: 31 mL/min/kg
- half-life [6]: 5.8 h
- CLhep predicted [7]: 4.7 mL/min/kg
- clearance [8]: 9.7 mL/min/kg
- bioavailability [17]: 9%
- IC50 [9]: < 0.5 nM
- Vd [10]: 4 L/kg
- CLhep predicted [11]: 11 mL/min/kg
- Vd [12]: 4.2 L/kg
- clearance [15]: 42 mL/min/kg

SMILES: C[C@@H]1CN(Cc2ccc(F)cc2)CCN1C(=O)COc1ccc(Cl)cc1NC(N)=O [BX 471 FREE BASE]
- half-life [1]: 0.7 h
- CLhep predicted [2]: 42 mL/min/kg
- CLhep predicted [4]: 62 mL/min/kg
- clearance [5]: 8.9 mL/min/kg
- half-life [6]: 4 h
- CLhep predicted [7]: 16 mL/min/kg
- clearance [8]: 1.7 mL/min/kg
- bioavailability [17]: 2%
- IC50 [9]: 4 nM
- Vd [10]: 1.7 L/kg
- CLhep predicted [11]: 28 mL/min/kg
- Vd [12]: 0.6 L/kg
- half-life [13]: 0.8 h
- Vd [14]: 0.6 L/kg
- clearance [15]: 33 mL/min/kg
